# Test results reported in ChEMBL document CHEMBL3399949, “Fingerprint-based consensus virtual screening towards structurally new 5-HT(6)R ligands” (Bioorg Med Chem Lett, 2015).
# Test: Dissociation constant, pKa of the compound
# Type: physicochemical
row,SMILES,pKa
1,Cc1ccc(Cl)cc1N(C)C(=O)c1cn(-c2ccc(F)cc2F)c(=O)c2ccccc12,-1.07
2,O=S(=O)(Nc1ccn(Cc2cccc3ccccc23)n1)c1ccc(Br)s1,1.93
3,COc1cccc(-n2cc(C(=O)N(C)c3cccc(Cl)c3)c3ccccc3c2=O)c1,-1.37
4,O=S(=O)(Nc1ccccc1-c1nccc2ccccc12)c1ccc(Cl)cc1,5.3
5,COCCn1c(C)c(C)c(S(=O)(=O)c2ccc(Cl)cc2)c1N,-0.59
6,O=S(=O)(Nc1cc(Sc2cccc3cccnc23)c(O)c2ccccc12)c1ccc(F)cc1,3.48
7,NC(=O)C1CCN(c2c(S(=O)(=O)c3ccccc3)cnc3ccc(Cl)cc23)CC1,3.05
8,Cc1ccc(S(=O)(=O)c2cnc3ccc(F)cc3c2SCc2ccc(Cl)cc2)cc1,-0.25
9,Cc1ccc(S(=O)(=O)N/N=C2\CCCc3c2[nH]c2ccc(Cl)cc32)cc1,-0.33
10,Brc1ccc2c(c1)c1c3n2CCN(Cc2ccccc2)C3CCC1 (centres undefined),6.95
11,Cc1ccc(Nc2c(S(=O)(=O)c3ccccc3)cnc3ccc(Cl)cc23)cc1,2.34
12,O=S(=O)(Nc1cc(Sc2cccc3cccnc23)c(O)c2ccccc12)c1ccccc1,3.48
13,O=S(=O)(Nc1cc2c(c3ccccc13)OC1(N3CCOCC3)CCCCC21)c1ccccc1 (centres undefined),5.56
14,Nc1c(S(=O)(=O)c2ccccc2)sc2nc(-c3ccccc3)cc(-c3ccccc3)c12,-0.69
